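Protocol summary: plate cells (96-well), add compound at 5 concentrations, incubate 48 h, interpolate endpoints linearly. The concentration for 50% growth inhibition is given as GI50. The concentration for full growth arrest is given as TGI.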 Bounds are passed on as bounds.

The first experiment deals with 786-0 renal. The experiment can be described thus: NCI anticancer screen, dose series, 48 h.
In the case of `COc1ccc2c(c1)C(=O)CCc1cc(OC)c(OC)c(OC)c1-2`, the GI50 is less than 0.01 µM and the TGI was more than 100 µM.
`CC(C)CNc1nc(-c2ccccc2Cl)nc2ccccc12`: the GI50 is 16.8 µM and the TGI was found to be 30.4 µM.
Consider `COc1cc(NCC(C#N)C#N)ccc1N=Nc1ccc(Cl)cc1`, for which the TGI worked out at 48.8 µM.
`CC(=O)c1ccc(NC(=O)/C(CC(=O)c2sc(-c3cccnc3)nc2C)=N/NC(N)=O)cc1` displayed a TGI of 83.8 µM.
In the case of `COc1ccc2c(c1)OC1=C(C(=O)OC1)C2c1cc(OC)c2c(c1)OCCO2` (configuration not stated), the GI50 is 0.068 µM and the TGI was more than 23.1 µM.
Consider `C=CC[P@]1(=O)O[C@H](c2ccccc2)[C@H](C)N1C`, for which the TGI is more than 100 µM.
Regarding `CCOc1cc(C(C)(C)C)ccc1C1=N[C@H](c2ccc(Cl)cc2)[C@H](c2ccc(Cl)cc2)N1C(=O)N1CCN(CC#Cc2cccc3c2CN([C@@H]2CCC(=O)NC2=O)C3=O)CC1`, the GI50 is 1.32 µM and the TGI was determined as 42.8 µM.
For `CN(C)CCOc1ccc([N+](=O)[O-])c2cccnc12`, the TGI was more than 100 µM.
`OCC12C=CC(C1)c1ccccc12` (configuration not stated) returned a TGI of more than 100 µM.
Compound `O=NNc1ccc2ccccc2n1` displayed a TGI of more than 100 µM.
Compound `Cc1ccc(S(=O)(=O)N=Nc2c(O)[nH]c3cc(O)c(C(=O)O)cc23)cc1` displayed a TGI of more than 100 µM.
`NC(CCCC(N)P(=O)(O)O)P(=O)(O)O` (configuration not stated) yielded a TGI of more than 100 µM.
`O=C(O)CCCc1ccc2ccc3ccccc3c2c1`: the TGI is more than 100 µM.
On to `Cc1cc(Cl)ccc1OCC(=O)Nc1nc2c(Cl)cccc2s1`, for which the GI50 was 26.4 µM and the TGI was more than 100 µM.
`CCOC(=O)[CH-]C(=O)C12CC3CC(CC(C3)C1)C2.CCOC(=O)[CH-]C(=O)C12CC3CC(CC(C3)C1)C2.CC[O-].CC[O-].[Ti+4]`: the GI50 was more than 100 µM and the TGI is more than 100 µM.
For the compound `CSC(SC)(C(=O)O)c1cc(-c2c(Cl)cccc2Cl)no1`, the TGI is more than 100 µM.
The compound `COc1ccc2nc3cc(Cl)ccc3c(Sc3ccc([N+](=O)[O-])cc3C)c2c1` had a TGI of more than 100 µM.

The next experiment deals with CAKI-1 renal. The experiment can be described thus: NCI anticancer screen, dose series, 48 h.
Regarding `N#CCC(=O)N/N=C1/C(=O)N(c2ccc(Cl)cc2)C(=O)C(=O)C1c1nc2ccccc2s1` (configuration not stated), the TGI is more than 100 µM.
`COc1ccc2c(c1)C(=O)CCc1cc(OC)c(OC)c(OC)c1-2`: the GI50 is less than 0.01 µM and the TGI is more than 100 µM.
The like results for `CC(C)CNc1nc(-c2ccccc2Cl)nc2ccccc12` were, in that order, 15 µM and 32.7 µM.
`CC(=O)c1ccc(NC(=O)/C(CC(=O)c2sc(-c3cccnc3)nc2C)=N/NC(N)=O)cc1` displayed a TGI of 86 µM.
In the case of `COc1ccc2c(c1)OC1=C(C(=O)OC1)C2c1cc(OC)c2c(c1)OCCO2` (configuration not stated), the GI50 was 0.0411 µM and the TGI is more than 100 µM.
As for `CCOc1cc(C(C)(C)C)ccc1C1=N[C@H](c2ccc(Cl)cc2)[C@H](c2ccc(Cl)cc2)N1C(=O)N1CCN(CC#Cc2cccc3c2CN([C@@H]2CCC(=O)NC2=O)C3=O)CC1`, the GI50 was 0.215 µM and the TGI is 9.59 µM.
In turn, `CN(C)CCOc1ccc([N+](=O)[O-])c2cccnc12` returned a TGI of more than 100 µM.
Compound `OCC12C=CC(C1)c1ccccc12` (configuration not stated) came in with a TGI of more than 100 µM.
Compound `O=NNc1ccc2ccccc2n1` came in with a TGI of more than 100 µM.
Compound `Cc1ccc(S(=O)(=O)N=Nc2c(O)[nH]c3cc(O)c(C(=O)O)cc23)cc1` yielded a TGI of more than 100 µM.
In turn, `NC(CCCC(N)P(=O)(O)O)P(=O)(O)O` (configuration not stated) yielded a TGI of more than 100 µM.
Regarding `O=C(O)CCCc1ccc2ccc3ccccc3c2c1`, the TGI was more than 100 µM.
Consider `Cc1cc(Cl)ccc1OCC(=O)Nc1nc2c(Cl)cccc2s1`, for which the GI50 was more than 100 µM and the TGI was more than 100 µM.
As for `CCOC(=O)[CH-]C(=O)C12CC3CC(CC(C3)C1)C2.CCOC(=O)[CH-]C(=O)C12CC3CC(CC(C3)C1)C2.CC[O-].CC[O-].[Ti+4]`, the GI50 was more than 100 µM and the TGI is more than 100 µM.
Regarding `CSC(SC)(C(=O)O)c1cc(-c2c(Cl)cccc2Cl)no1`, the TGI is more than 100 µM.
Take `COc1ccc2nc3cc(Cl)ccc3c(Sc3ccc([N+](=O)[O-])cc3C)c2c1`: the TGI was more than 100 µM.

For a further experiment, the system named is SF-268 CNS. The experiment is described as follows: NCI anticancer screen, dose series, 48 h.
In turn, `N#CCC(=O)N/N=C1/C(=O)N(c2ccc(Cl)cc2)C(=O)C(=O)C1c1nc2ccccc2s1` (configuration not stated) showed a TGI of more than 100 µM.
As for `COc1ccc2c(c1)C(=O)CCc1cc(OC)c(OC)c(OC)c1-2`, the GI50 is 0.0652 µM and the TGI was more than 100 µM.
Regarding `CC(C)CNc1nc(-c2ccccc2Cl)nc2ccccc12`, the GI50 is 22.1 µM and the TGI amounted to 40.4 µM.
Consider `COc1cc(NCC(C#N)C#N)ccc1N=Nc1ccc(Cl)cc1`, for which the TGI is more than 100 µM.
For `CC(=O)c1ccc(NC(=O)/C(CC(=O)c2sc(-c3cccnc3)nc2C)=N/NC(N)=O)cc1`, the TGI was more than 100 µM.
In the case of `COc1ccc2c(c1)OC1=C(C(=O)OC1)C2c1cc(OC)c2c(c1)OCCO2` (configuration not stated), the GI50 is 0.156 µM and the TGI was more than 100 µM.
`C=CC[P@]1(=O)O[C@H](c2ccccc2)[C@H](C)N1C` registered a TGI of more than 100 µM.
Regarding `CCOc1cc(C(C)(C)C)ccc1C1=N[C@H](c2ccc(Cl)cc2)[C@H](c2ccc(Cl)cc2)N1C(=O)N1CCN(CC#Cc2cccc3c2CN([C@@H]2CCC(=O)NC2=O)C3=O)CC1`, the GI50 was 1.2 µM and the TGI was more than 100 µM.
The compound `CN(C)CCOc1ccc([N+](=O)[O-])c2cccnc12` returned a TGI of more than 100 µM.
In turn, `OCC12C=CC(C1)c1ccccc12` (configuration not stated) had a TGI of more than 100 µM.
In turn, `O=NNc1ccc2ccccc2n1` gave a TGI of more than 100 µM.
In turn, `Cc1ccc(S(=O)(=O)N=Nc2c(O)[nH]c3cc(O)c(C(=O)O)cc23)cc1` gave a TGI of more than 100 µM.
Compound `O=C(O)CCCc1ccc2ccc3ccccc3c2c1` came in with a TGI of more than 100 µM.
As to `Cc1cc(Cl)ccc1OCC(=O)Nc1nc2c(Cl)cccc2s1`, the GI50 is 28.8 µM and the TGI is more than 100 µM.
Take `CCOC(=O)[CH-]C(=O)C12CC3CC(CC(C3)C1)C2.CCOC(=O)[CH-]C(=O)C12CC3CC(CC(C3)C1)C2.CC[O-].CC[O-].[Ti+4]`: the GI50 was more than 100 µM and the TGI is more than 100 µM.
`CSC(SC)(C(=O)O)c1cc(-c2c(Cl)cccc2Cl)no1` came in with a TGI of more than 100 µM.
`COc1ccc2nc3cc(Cl)ccc3c(Sc3ccc([N+](=O)[O-])cc3C)c2c1` came in with a TGI of more than 100 µM.

Another experiment deals with SNB-19 CNS. The experiment is described as follows: NCI anticancer screen, dose series, 48 h.
On to `N#CCC(=O)N/N=C1/C(=O)N(c2ccc(Cl)cc2)C(=O)C(=O)C1c1nc2ccccc2s1` (configuration not stated), for which the TGI is more than 100 µM.
With `COc1ccc2c(c1)C(=O)CCc1cc(OC)c(OC)c(OC)c1-2`, the GI50 is less than 0.01 µM and the TGI was more than 100 µM.
`CC(C)CNc1nc(-c2ccccc2Cl)nc2ccccc12`: the GI50 was 24.8 µM and the TGI was determined as 58.5 µM.
`COc1cc(NCC(C#N)C#N)ccc1N=Nc1ccc(Cl)cc1` displayed a TGI of 61.6 µM.
Regarding `CC(=O)c1ccc(NC(=O)/C(CC(=O)c2sc(-c3cccnc3)nc2C)=N/NC(N)=O)cc1`, the TGI is more than 100 µM.
In the case of `COc1ccc2c(c1)OC1=C(C(=O)OC1)C2c1cc(OC)c2c(c1)OCCO2` (configuration not stated), the GI50 was 0.0697 µM and the TGI is more than 100 µM.
The compound `C=CC[P@]1(=O)O[C@H](c2ccccc2)[C@H](C)N1C` displayed a TGI of more than 100 µM.
In the case of `CCOc1cc(C(C)(C)C)ccc1C1=N[C@H](c2ccc(Cl)cc2)[C@H](c2ccc(Cl)cc2)N1C(=O)N1CCN(CC#Cc2cccc3c2CN([C@@H]2CCC(=O)NC2=O)C3=O)CC1`, the GI50 was 2.1 µM and the TGI was more than 58.8 µM.
Compound `CN(C)CCOc1ccc([N+](=O)[O-])c2cccnc12` showed a TGI of more than 100 µM.
In turn, `OCC12C=CC(C1)c1ccccc12` (configuration not stated) had a TGI of more than 100 µM.
Still for that read-out and setting: then `O=NNc1ccc2ccccc2n1`, with more than 100 µM; and `Cc1ccc(S(=O)(=O)N=Nc2c(O)[nH]c3cc(O)c(C(=O)O)cc23)cc1`, with more than 100 µM; and `O=C(O)CCCc1ccc2ccc3ccccc3c2c1`, with more than 100 µM.
On to `Cc1cc(Cl)ccc1OCC(=O)Nc1nc2c(Cl)cccc2s1`, for which the GI50 was 31.2 µM and the TGI was determined as 72 µM.
As for `CCOC(=O)[CH-]C(=O)C12CC3CC(CC(C3)C1)C2.CCOC(=O)[CH-]C(=O)C12CC3CC(CC(C3)C1)C2.CC[O-].CC[O-].[Ti+4]`, the GI50 is more than 100 µM and the TGI is more than 100 µM.
For the compound `CSC(SC)(C(=O)O)c1cc(-c2c(Cl)cccc2Cl)no1`, the TGI is more than 100 µM.
For the compound `COc1ccc2nc3cc(Cl)ccc3c(Sc3ccc([N+](=O)[O-])cc3C)c2c1`, the TGI is more than 100 µM.

A further experiment has as its system RXF 393 renal. The experiment can be described thus: NCI anticancer screen, dose series, 48 h.
Compound `N#CCC(=O)N/N=C1/C(=O)N(c2ccc(Cl)cc2)C(=O)C(=O)C1c1nc2ccccc2s1` (configuration not stated) yielded a TGI of more than 100 µM.
For the compound `CC(C)CNc1nc(-c2ccccc2Cl)nc2ccccc12`, the GI50 is 15.1 µM and the TGI is 31.2 µM.
The compound `COc1cc(NCC(C#N)C#N)ccc1N=Nc1ccc(Cl)cc1` showed a TGI of 79 µM.
Still for that read-out and setting: then `C=CC[P@]1(=O)O[C@H](c2ccccc2)[C@H](C)N1C`, with more than 100 µM.
Regarding `CCOc1cc(C(C)(C)C)ccc1C1=N[C@H](c2ccc(Cl)cc2)[C@H](c2ccc(Cl)cc2)N1C(=O)N1CCN(CC#Cc2cccc3c2CN([C@@H]2CCC(=O)NC2=O)C3=O)CC1`, the GI50 is 2.12 µM and the TGI is more than 51.6 µM.
In the case of `Cc1ccc(S(=O)(=O)N=Nc2c(O)[nH]c3cc(O)c(C(=O)O)cc23)cc1`, the TGI was more than 100 µM.
In the case of `NC(CCCC(N)P(=O)(O)O)P(=O)(O)O` (configuration not stated), the TGI is more than 100 µM.
For the compound `O=C(O)CCCc1ccc2ccc3ccccc3c2c1`, the TGI was more than 100 µM.
In the case of `COc1ccc2nc3cc(Cl)ccc3c(Sc3ccc([N+](=O)[O-])cc3C)c2c1`, the TGI was more than 100 µM.
